pKi: −log10 of the molar value.
Target: Gastrin/cholecystokinin type B receptor (Cavia porcellus)
Assay: Inhibition of [3H]pCCK-8 binding to Guinea pig cortex membrane Cholecystokinin type B receptor

Work on `C[C@]1(Cc2c[nH]c3ccccc23)NC(=O)CCCCSSCC[C@@H](C(=O)N[C@@H](CC(=O)O)C(=O)N[C@@H](Cc2ccccc2)C(N)=O)NC1=O` [N-(1-Carbamoyl-2-phenyl-ethyl)-3-{[(5R,8R)-8-(1H-indol-3-ylmethyl)-8-methyl-7,10-dioxo-1,2-dithia-6,9-diaza-cyclotetradecane-5-carbonyl]-amino}-succinamic acid] yielded a pKi of 7.29.

— BindingDB's records for doi:10.1021/jm9603072 (University of Paris, 1997)
